The values below come from patent US20120329736A1, “Treatment for gastrointestinal disorders using a selective, site-activated binding system” (priority 2011, published 2012).

In brackets after ≈: the same amount, converted by molar mass.

A short description of data set [1]: Hydrogen peroxide retention by extracts after desiccation and rehydration (colorimetric strips). It is filed as physicochemical. Particulars: dissolved in 35% hydrogen peroxide, heated at 80° C., desiccated, rehydrated. How it is done:
In order to compare the samples provided above, a test series was prepared in 30 ml tubes containing from 1 g-10 g of the above extracts of Chinese Gall, Green Tea, Pomegranate and Resveratrol. Each was dissolved in 20 ml of 35% hydrogen peroxide then separate to two aliquots. One part was heated at 80° C. to a dark viscous semi-liquid and allowed to desiccate to a final volume of 5 ml. Each was rehydrated and serially diluted to detection range.

The conditions of data set [2]: cited from earlier work.
Data set [3] deals with broad spectrum of bacteria, gram positive and gram negative. Particulars: cited from earlier work.

Consider `Oc1ccc(C=Cc2cc(O)cc(O)c2)cc1` [Resveratrol], for which, in data set [1], the peroxide retention capability result is “relatively less ability to form stable perhydrates”. Moreover, in data set [2], the water solubility is 3 µg/mL (≈ 13.1 µM).
For the compound RIFAXAMIN, the “MIC performance compared to the binding system” value in data set [3] is on record as “performed poorly compared to the binding system”.
